Assay results from US20090156598A1, “Imidazolopyrimidine modulators of TRPV1” (priority 2007, published 2009).

What was measured:
rat TRPV1 = target: T1, rat TRPV1 (Rattus norvegicus, UniProt O35433); experiment: Functional assay: block of capsaicin-induced Ca2+ influx, rat assay (FLIPR, rTRPV1/HEK293); assay type: cell-based; details: rTRPV1/HEK293 cells, capsaicin challenge, mean; > value = solubility limit in assay medium
T1 construct: expressed in transfected cells; host or cells: HEK293 (rTRPV1/HEK293), geneticin selection
T1 sequence (O35433 whole entry): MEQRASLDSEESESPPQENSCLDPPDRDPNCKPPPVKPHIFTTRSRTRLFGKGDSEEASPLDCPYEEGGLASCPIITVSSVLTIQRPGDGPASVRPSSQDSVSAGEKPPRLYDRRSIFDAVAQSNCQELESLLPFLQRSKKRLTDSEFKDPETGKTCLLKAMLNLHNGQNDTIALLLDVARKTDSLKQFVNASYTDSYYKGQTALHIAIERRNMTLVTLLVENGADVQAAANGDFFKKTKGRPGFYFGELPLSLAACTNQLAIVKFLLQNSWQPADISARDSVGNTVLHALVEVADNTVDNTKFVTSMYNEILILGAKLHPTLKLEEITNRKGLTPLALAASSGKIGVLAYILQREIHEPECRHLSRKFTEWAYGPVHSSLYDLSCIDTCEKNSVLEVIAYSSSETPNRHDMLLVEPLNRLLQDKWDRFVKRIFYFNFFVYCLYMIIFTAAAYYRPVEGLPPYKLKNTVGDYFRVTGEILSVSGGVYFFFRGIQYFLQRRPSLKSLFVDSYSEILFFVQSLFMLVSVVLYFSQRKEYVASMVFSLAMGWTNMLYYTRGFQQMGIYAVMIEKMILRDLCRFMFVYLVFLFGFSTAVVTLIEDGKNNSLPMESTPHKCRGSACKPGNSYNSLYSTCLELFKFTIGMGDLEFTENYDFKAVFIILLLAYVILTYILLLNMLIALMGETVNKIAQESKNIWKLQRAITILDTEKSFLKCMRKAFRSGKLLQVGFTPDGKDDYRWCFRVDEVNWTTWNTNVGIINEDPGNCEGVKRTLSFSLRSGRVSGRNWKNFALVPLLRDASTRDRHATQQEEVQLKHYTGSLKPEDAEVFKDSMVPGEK
Procedure: (§1) Functional assay: block of capsaicin-induced Ca^2+ influx
(§2) HEK293 cells were transfected with human TRPV1 cloned in pcDNA3.1zeo(+) using the Effectene non-liposomal lipid based transfection kit (Qiagen) (hTRPV1/HEK293). hTRPV1/HEK293 cells were routinely grown as monolayers under selection in zeocin (200 μg/mL; Invitrogen) in Dulbecco's Modified Eagle Medium (DMEM, Gibco BRL) supplemented with 10% fetal bovine serum, and penicillin/streptomycin (50 units/mL) in 5% CO2 at 37° C. Cells were passaged frequently, every 3-5 days, to avoid overgrowth, depletion of essential medium components, or acidic medium exposure. Cells were passaged using a brief wash in 0.05% trypsin with 1 mM EDTA, followed by dissociation in divalent-free phosphate-buffered saline (Hyclone #SH30028.02). Dissociated cells were seeded onto poly-D-lysine coated black-walled 96-well plates (Biocoat; Becton Dickinson #354640) at about 40,000 cells per well and grown for approximately 1 day in culture medium to near confluency. The assay buffer was composed of 130 mM NaCl, 2 mM KCl, 2 mM MgCl2, 10 mM HEPES, 5 mM glucose, and either 2 mM or 20 μM CaCl2. On the day of the experiment, the culture medium was replaced with 2 mM calcium assay buffer using an automated plate washer (EL×405; Biotek, VT). The cells were incubated in 100 μL/well Fluo-3/AM (2 μM; TEFLabs #0116) with Pluronic F127 (100 μg/mL; Sigma #P2443) for 1 h at rt in the dark. After loading the cells, the dye solution was replaced with 50 μL/well of 20 μM calcium assay buffer using the EL×405 plate washer. Test compounds (50 μL/well) were added to the plate and incubated for 30 min. Intracellular Ca^2+ levels were subsequently assayed using a Fluorometric Imaging Plate Reader (FLIPR™ instrument, Molecular Devices, CA) to simultaneously monitor Fluo-3 fluorescence in all wells (λexcitation=488 nm, λemission=540 nm) during challenge with agonist (capsaicin). The IC50 values were determined. Cells were challenged with 150 nM capsaicin and the fluorescence counts were captured following agonist addition at a sampling rate of 0.33 Hz. The contents of the wells were mixed 3 times (40 μL mix volume) immediately after the additions were made. Concentration-dependence of block was determined by exposing each well of cells in duplicate rows of a 96-well plate to a serial dilution of test compound. The concentration series usually started at 10 μM with a three-fold serial decrement in concentration. The magnitude of the capsaicin response was determined by measuring the change in fluo3 fluorescence before and 100 seconds after the addition of the agonist. Data were analyzed using a non-linear regression program (Origin; OriginLab, MA).
This assay was performed similarly to the human assay described above, but using HEK293 cells transfected with rat TRPV1 (rTRPV1/HEK293).
(§3) IC50 values shown are the average (mean) of the results obtained. Where activity is shown as greater than (>) a particular value, the value is the solubility limit of the compound in the assay medium.

human TRPV1 = target: T2, human TRPV1 (Homo sapiens, UniProt Q8NER1); experiment: Functional assay: block of capsaicin-induced Ca2+ influx, human assay (FLIPR, hTRPV1/HEK293); assay type: cell-based; details: hTRPV1/HEK293 cells, 150 nM capsaicin challenge, mean; > value = solubility limit in assay medium
T2 construct: expressed in transfected cells; host or cells: HEK293 (hTRPV1/HEK293), zeocin selection
T2 sequence (Q8NER1 whole entry): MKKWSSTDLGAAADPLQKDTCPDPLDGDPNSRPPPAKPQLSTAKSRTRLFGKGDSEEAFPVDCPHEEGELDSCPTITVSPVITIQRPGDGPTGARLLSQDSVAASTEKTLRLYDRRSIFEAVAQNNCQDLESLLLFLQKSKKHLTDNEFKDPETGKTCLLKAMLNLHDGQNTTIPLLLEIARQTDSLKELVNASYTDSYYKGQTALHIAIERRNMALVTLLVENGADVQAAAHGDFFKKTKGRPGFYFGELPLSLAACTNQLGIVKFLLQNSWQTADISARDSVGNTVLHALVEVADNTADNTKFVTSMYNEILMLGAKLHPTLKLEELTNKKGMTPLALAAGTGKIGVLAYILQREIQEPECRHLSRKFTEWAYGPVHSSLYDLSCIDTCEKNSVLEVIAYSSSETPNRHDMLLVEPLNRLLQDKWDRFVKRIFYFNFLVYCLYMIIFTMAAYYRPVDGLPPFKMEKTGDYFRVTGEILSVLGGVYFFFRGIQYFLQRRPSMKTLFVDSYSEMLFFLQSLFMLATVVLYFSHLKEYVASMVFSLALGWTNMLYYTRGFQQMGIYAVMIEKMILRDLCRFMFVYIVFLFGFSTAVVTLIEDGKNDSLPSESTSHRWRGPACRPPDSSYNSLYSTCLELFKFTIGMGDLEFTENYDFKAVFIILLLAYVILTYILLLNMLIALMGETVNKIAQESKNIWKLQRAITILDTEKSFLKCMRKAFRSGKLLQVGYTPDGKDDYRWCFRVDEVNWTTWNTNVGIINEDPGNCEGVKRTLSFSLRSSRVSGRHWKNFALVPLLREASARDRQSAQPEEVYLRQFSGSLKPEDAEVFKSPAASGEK
Procedure: as §1, §2, §3

Row | Structure (SMILES) | IC50 (rat TRPV1) | IC50 (human TRPV1)
1 | FC(F)(F)c1ccc(Nc2ncnc3[nH]c(Nc4c(Cl)cccc4Cl)nc23)cc1 [Example 1, N^8-(2,6-Dichloro-phenyl)-N^6-(4-trifluoromethyl-phenyl)-9H-purine-6,8-diamine] | 0.0049 µM | 0.017 µM
2 | FC(F)(F)c1ccc(Nc2ncnc3[nH]c(Nc4c(Cl)cccc4Cl)nc23)cn1 [Example 2, N^8-(2,6-Dichloro-phenyl)-N^6-(6-trifluoromethyl-pyridin-3-yl)-9H-purine-6,8-diamine] | 0.019 µM | 
3 | CC(C)(C)c1ccc(Nc2ncnc3[nH]c(Nc4c(Cl)cccc4Cl)nc23)cc1 [Example 3, N^6-(4-tert-Butyl-phenyl)-N^8-(2,6-dichloro-phenyl)-9H-purine-6,8-diamine] | 0.00015 µM | 0.0023 µM
4 | Clc1cccc(Cl)c1Nc1nc2c(Nc3ccccc3)ncnc2[nH]1 [Example 4, N^8-(2,6-Dichloro-phenyl)-N^6-phenyl-9H-purine-6,8-diamine] | 1.75 µM | 3.39 µM
5 | CS(=O)(=O)c1ccc(Nc2ncnc3[nH]c(Nc4c(Cl)cccc4Cl)nc23)cc1 [Example 5, N^8-(2,6-Dichloro-phenyl)-N^6-(4-methanesulfonyl-phenyl)-9H-purine-6,8-diamine] | 0.018 µM | 0.17 µM
6 | Cc1nc(Nc2ccc(C(F)(F)F)cc2)c2nc(Nc3c(Cl)cccc3Cl)[nH]c2n1 [Example 6, N^8-(2,6-Dichloro-phenyl)-2-methyl-N^6-(4-trifluoromethyl-phenyl)-9H-purine-6,8-diamine] | 0.003 µM | 0.029 µM
7 | FC(F)(F)c1ccc(Nc2ncnc3[nH]c(Nc4ccccc4Cl)nc23)cc1 [Example 7, N^8-(2-Chloro-phenyl)-N^6-(4-trifluoromethyl-phenyl)-9H-purine-6,8-diamine] | > 6.67 µM | > 6.67 µM
8 | FC(F)(F)c1ccc(Nc2ncnc3[nH]c(Nc4ccccc4C(F)(F)F)nc23)cc1 [Example 8, N^6-(4-Trifluoromethyl-phenyl)-N^8-(2-trifluoromethyl-phenyl)-9H-purine-6,8-diamine] | 1.01 µM | 3.07 µM
9 | FC(F)(F)c1ccc(Nc2ncnc3[nH]c(Nc4ccccc4C(F)(F)F)nc23)cn1 [Example 9, N^8-(2-Trifluoromethyl-phenyl)-N^6-(6-trifluoromethyl-pyridin-3-yl)-9H-purine-6,8-diamine] | 1.05 µM | 2.3 µM
10 | Cn1c(Nc2c(Cl)cccc2Cl)nc2c(Nc3ccc(C(F)(F)F)cc3)ncnc21 [Example 10, N^8-(2,6-Dichloro-phenyl)-9-methyl-N^6-(4-trifluoromethyl-phenyl)-9H-purine-6,8-diamine] | 1.13 µM | 1.46 µM
